Test results as given in PubChem BioAssay AID463229 (Broad Institute, 2010).

System: INS-1E rat beta cells, no cytokines, CellTiter-Glo ATP, 48 h
Assay: cytokine-free beta-cell viability effect – INS-1E rat cells, ATP luminescence, cherry pick, counter-screen for beta-cell apoptosis protection project, dose response (AID 463229)

Q: Cc1ccc(C(=O)NC2CCCc3c2cnn3-c2ccc(F)cc2F)cn1 (stereo unspecified) was tested. Which AC50 did it give?
A: The AC50 was 7.07 µM.

Q: Which AC50 does the source give for CCOC(=O)C(C(C)=O)c1c(Br)c(O)c(O)c2c(C(=O)c3ccc(C)cc3)coc12 (stereo unspecified) here?
A: Its AC50 is 2.9 µM.

Q: How did the AC50 turn out when O=C(NCc1cccnc1)/C(=C/c1ccc(-c2ccc(Cl)cc2)o1)S(=O)(=O)c1ccccc1 was run?
A: The AC50 was 6.93 µM.

Q: Which AC50 does the source give for COc1ccc(C2CC(c3ccc4ccccc4c3OC(C)=O)=NN2C(C)=O)cc1 (stereo unspecified) here?
A: Its AC50 is 8.47 µM.

Q: How did the AC50 turn out when COc1ccc2c(c1)[nH]c1c(N3CCN(Cc4ccc5c(c4)OCO5)CC3)ncnc12 was run?
A: The AC50 was 3.45 µM.

Q: COc1ccc(-n2c(CNc3ccc(C)cc3)nnc2SCC(=O)Nc2nc(-c3ccccc3)cs2)cc1 was tested. Which AC50 did it give?
A: Its AC50 is 12.7 µM.

Q: Which AC50 does the source give for Cc1ccc(S(=O)(=O)Nc2cc(Cl)c(O)c3ncccc23)cc1 here?
A: Its AC50 is 4.38 µM.

Q: Which AC50 does the source give for O=C(NC(NC(=S)Nc1ccc(Cl)cc1Cl)C(Cl)(Cl)Cl)c1cccc([N+](=O)[O-])c1 (stereo unspecified) here?
A: Its AC50 is 7.31 µM.

Q: Which AC50 does the source give for Cc1ccccc1/C=C/C(=O)c1ccc([N+](=O)[O-])o1 here?
A: The AC50 was 5.07 µM.

Q: With Cc1ccc2c(c1)[nH]c1c(N3CCN(Cc4ccccc4)CC3)ncnc12 as the molecule, how does the AC50 read?
A: The AC50 was 8.07 µM.

Q: Which AC50 does the source give for CCC(C)(C)c1ccc(OCCCC[n+]2ccc(C)cc2)c(C(C)(C)CC)c1 here?
A: The AC50 was 1.91 µM.

Q: How did the AC50 turn out when C/C(=N\N1C(=O)c2ccccc2NC1c1ccco1)c1ccccc1O (stereo unspecified) was run?
A: The AC50 was 12.5 µM.

Q: How did the AC50 turn out when Cc1sc2cc3c(c(C(=O)c4ccccc4)[n+]2c1C)-c1cccc2cccc-3c12 was run?
A: The AC50 was 2.27 µM.

Q: Which AC50 does the source give for CC(CCCC(C)(C)O)NC(=O)c1cc(COc2ccc3ncccc3c2)on1 (stereo unspecified) here?
A: The AC50 was 8.48 µM.

Q: How did the AC50 turn out when COc1cccc(/C=N\NC(=O)c2ccc(Cn3cc(Br)c([N+](=O)[O-])n3)o2)c1O was run?
A: Its AC50 is 7.9 µM.

Q: Which AC50 does the source give for Cc1ccc2c(c1)c(/C=C/c1cc[n+](C)cc1)c(C)n2C here?
A: Its AC50 is 3.97 µM.

Q: Which AC50 does the source give for Cc1cc(C)n(-c2nc3ccccc3c(=O)n2OCC#N)n1 here?
A: Its AC50 is 12.4 µM.

Q: How did the AC50 turn out when COc1ccc([N+](=O)[O-])c(S(=O)(=O)c2ccc(Cl)cc2)n1 was run?
A: Its AC50 is 7.61 µM.

Q: O=C(c1cccnc1)N(c1cc2sc(=O)oc2c2ccccc12)S(=O)(=O)c1ccccc1 was tested. Which AC50 did it give?
A: The AC50 was 15.5 µM.

Q: With FC(F)(F)c1cnc(NNC(=S)Nc2ccccc2Cl)c(Cl)c1 as the molecule, how does the AC50 read?
A: Its AC50 is 7.03 µM.

Q: How did the AC50 turn out when CCOc1cccc(/C=N/NC(=O)c2ccc3c(c2)OCCO3)c1O was run?
A: Its AC50 is 8.21 µM.

Q: How did the AC50 turn out when Cc1ccc(-c2nc(C(Cl)Cl)c3ccccc3n2)cc1 was run?
A: Its AC50 is 3.51 µM.

Q: With O=C(N/N=C(\c1ccccc1)c1ccccn1)c1cccc([N+](=O)[O-])c1 as the molecule, how does the AC50 read?
A: Its AC50 is 2.11 µM.

Q: How did the AC50 turn out when C=C1C(O)[C@@H]2O[C@]3(CC[C@H](/C=C/C(C)[C@@H]4CC(C)=CC5(O[C@H](C[C@@](C)(O)CO)CCC5O)O4)O3)CC[C@H]2O[C@@H]1C(O)CC(C)[C@H]1OC2(CCCCO2)CCC1C (stereo partly specified) was run?
A: The AC50 was 10.7 µM.

Q: How did the AC50 turn out when Cn1nc(C(C)(C)C)cc1C(=O)NCc1ccc(N2CCCC2=O)cc1 was run?
A: The AC50 was 5.65 µM.

Q: CC(=O)NC(c1cccs1)c1cc(F)c2cccnc2c1O (stereo unspecified) was tested. Which AC50 did it give?
A: The AC50 was 6.05 µM.

Q: Which AC50 does the source give for Cc1ccc(-c2c[n+]3c(n2-c2ccccc2)SCC3)cc1 here?
A: The AC50 was 2.63 µM.

Q: For CCN(CC)CCOc1ccc2c(c1)C(=NNC(=O)c1ccccn1)c1cc(OCCN(CC)CC)ccc1-2, which AC50 is on record?
A: The AC50 was 13.8 µM.

Q: For Oc1c(N=Nc2ccccn2)ccc2ccccc12, which AC50 is on record?
A: Its AC50 is 1.86 µM.

Q: For CCN(CC)c1ccc(/C=N/NC(=O)c2ccoc2C)c(O)c1, which AC50 is on record?
A: Its AC50 is 2.04 µM.

Q: How did the AC50 turn out when c1ccc(CN2CCN(Cc3c[nH]c4ccccc34)CC2)cc1 was run?
A: Its AC50 is 7.83 µM.

Q: With C=C1[C@@H](O)[C@@H]2O[C@]3(CC[C@H](/C=C/[C@@H](C)[C@@H]4CC(C)=CC5(O[C@H](C[C@@](C)(O)C(=O)OC)CC[C@H]5O)O4)O3)CC[C@H]2O[C@@H]1[C@@H](O)C[C@H](C)[C@H]1OC2(CCCCO2)CC[C@H]1C (stereo partly specified) as the molecule, how does the AC50 read?
A: The AC50 was less than 0.195 µM.

Q: Which AC50 does the source give for C/C(=N\NC(=O)c1cc(C)nc2ccccc12)c1ccccn1 here?
A: Its AC50 is 2.83 µM.

Q: How did the AC50 turn out when Cc1ccc(NC(=O)C2=C(c3ccccc3)S(=O)(=O)CCS2(=O)=O)cc1 was run?
A: The AC50 was 12.6 µM.

Q: How did the AC50 turn out when O=C(/C(=C/c1ccc(Cl)cc1)c1nc2ccccc2[nH]1)c1ccccc1 was run?
A: The AC50 was 4.04 µM.

Q: How did the AC50 turn out when O=C(NCCOc1cccnc1)c1ccc(OC2CCN(Cc3ccccn3)CC2)cc1 was run?
A: The AC50 was less than 0.195 µM.

Q: With CCCSc1nsc(NC(=O)Nc2ccc(F)cc2F)n1 as the molecule, how does the AC50 read?
A: The AC50 was 6.99 µM.

Q: Nc1nc(Cl)cc(N2CCC(c3cc(-c4ccc(Cl)cc4)n[nH]3)CC2)n1 was tested. Which AC50 did it give?
A: The AC50 was 5.56 µM.

Q: With Cc1cccnc1CN1CCN(C(=O)c2cc(COc3ccc4ncccc4c3)on2)CC1 as the molecule, how does the AC50 read?
A: The AC50 was 5.44 µM.

Q: COc1ccccc1-[n+]1c(C)cc(/C=C2\Sc3ccccc3N2C)cc1C was tested. Which AC50 did it give?
A: Its AC50 is less than 0.195 µM.

Q: For CCCC(=O)NC(c1ccccc1OC)c1ccc2cccnc2c1O (stereo unspecified), which AC50 is on record?
A: Its AC50 is 3.28 µM.

Q: With O=C(Nc1ccc(Cl)c(Cl)c1)N1CCSC1c1ccco1 (stereo unspecified) as the molecule, how does the AC50 read?
A: Its AC50 is 14.2 µM.

Q: How did the AC50 turn out when Oc1c(CN2CCN(c3ccccc3)CC2)cc(Br)c2cccnc12 was run?
A: Its AC50 is 5.87 µM.

Q: With Cc1cc(C(=O)NC2CCCc3c2cnn3-c2cccc(C)c2C)n(C)n1 (stereo unspecified) as the molecule, how does the AC50 read?
A: Its AC50 is 0.342 µM.

Q: With O=C(c1ccc([N+](=O)[O-])s1)N1CCN(c2cccc(Cl)c2)CC1 as the molecule, how does the AC50 read?
A: Its AC50 is 19.3 µM.

Q: With CCCCCCCC(=O)Nc1ccc(C(=O)N/N=C/c2cccc([N+](=O)[O-])c2)cc1 as the molecule, how does the AC50 read?
A: Its AC50 is 6.63 µM.

Q: How did the AC50 turn out when COc1ccc(NS(=O)(=O)c2cccc(NC(=O)c3ccc(S(=O)(=O)N4CCCCCC4)cc3)c2)cc1 was run?
A: Its AC50 is 4.24 µM.

Q: COC(=O)c1ccc2c(=O)n(-c3ccccc3)c(SCN3C(=O)c4ccccc4C3=O)nc2c1 was tested. Which AC50 did it give?
A: Its AC50 is 3.86 µM.

Q: For CC1Cc2cc(S(=O)(=O)N3CCC(C(=O)N4CCN(c5ccccc5F)CC4)CC3)ccc2N1C(=O)C1CC1 (stereo unspecified), which AC50 is on record?
A: The AC50 was 8 µM.

Q: Cc1onc(-c2c(Cl)cccc2Cl)c1C(=O)N/N=C(\N)COc1ccc(Cl)cc1 was tested. Which AC50 did it give?
A: The AC50 was 14.5 µM.

Q: COc1ccc(CCNc2ncnc3sccc23)cc1OC was tested. Which AC50 did it give?
A: The AC50 was 1.13 µM.
